The values that follow come from US10117877B2, “Methods for fat reduction” (ALLERGAN, INC., priority 2015, dated 2018).

The test system of assay [1] is prostamide receptors on human pre-adipocytes. The experiment in a line: xCelligence impedance assay on pre-adipocytes. It counts as cell-based. The settings on record: for pEC50: 20 min, human pre-adipocytes, 7 concentrations (10^−5 to 10^−9 M), signal measured for 20 minutes; for stimulation of prostamide receptors on human pre-adipocytes: xCelligence impedance assay; for potency relative to bimatoprost on human pre-adipocytes: comparison of the EC50 values of Table 1. The method, then:
In this example it is shown that the compounds of Formulas I and II stimulates pre-adipocytes. In general, the compounds of Formulas I and II and bimatoprost were tested in the xCelligence impedance assay.
More specifically, pre-adipocytes were purchased from Lonza. Cells were expanded in Pre-adipocyte maintenance medium (Lonza, Switzerland). Once expanded, 10,000 cells per well were plated into xCelligence 96-well plates and incubated at 37° C. for 72 hours until the impedance signal normalized. Once normalized, media was switched to serum-free pre-adipocyte media (PDM-2) for 2 hours at 37° C. Once the signal stabilized for 30 minutes, compounds were added at 7 concentrations (10^−5 to 10^−9 M) and the signal measured for 20 minutes. The change in impedance was normalized to the background reading (buffer alone) and the EC50 calculations were determined using prism software.

Assay [2] has as its system Human Hair Dermal Papilla Cells (HHDPCs). The experiment in a line: in vitro impedance (cell dielectric spectroscopy, CellKey) assay with human dermal papilla cells. The following applies: 10^−5 to 10^−12 M, impedance measured over 20 minutes, three independent experiments. It counts as cell-based. The procedure: In this example, the lack of activity of the compound according to Formulas I and II is shown. In general, bimatoprost or the compound of Formula I was incubated at concentrations from 10^−5 and 10^−12 M with human dermal papilla cells in an in vitro impedance assay. […] Three independent experiments were performed.
More specifically, Human Hair Dermal Papilla Cells (HHDPCs) were expanded in specific culture medium (Promo Cell). After growing, the cells were seeded on 96 well plates coated with poly-L-Lysine at 20,000 cells per well. Cells were incubated during 24 hours at 37° C., 5% CO2. The day of the experiment, the culture medium was eliminated and replaced by HBSS containing BSA, 0.1% v/v. The cells were incubated in the CellKey system, for 4 hours at 28° C. before using to test compounds. Bimatoprost, the compound of Formula I, and/or the compound of Formula II were tested at […] from 10^−5 to 10^−12 M. The change in impedance was measured over 20 minutes. The background was subtracted and the impedance signal was normalized to the reference (bimatoprost) for the compound of Formula I and the compound of Formula II. The data presented is in triplicate and of three independent experiments.

Another assay relates to female C57BL/6J mice. The experiment in a line: in vivo mouse hair re-growth model, topical on shaved backs. The following applies: 0.03% topical in minoxidil formulation; for full hair re-growth: shaved backs of mice. The method, then: In general, the compound of formula I and bimatoprost were prepared in the minoxidil formulation (50% Propylene Glycol; 30% Ethyl Alcohol) at a concentration of 0.03% for both compounds. Both compounds were given topically to shaved backs of mice (as described in Khidhir et al. FASEB J. 2013 27(2):557-567).
More specifically, female C57BL/6J mice (cat. no. 000664; Jackson Laboratory, Bar Harbor, Me., USA), aged 7 weeks, were randomly distributed into 4 groups to avoid any sibling bias and housed in groups of 5 with standard diet food pellets and water available ad libitum. […] From the next day, termed d 0 (zero), each mouse was treated topically with either the vehicle alone (ethanol:propylene glycol:water 3:5:2) or 0.03, 0.10, or 0.30% bimatoprost in the vehicle for d 14; 10 mice were used for each condition. The appropriate solution (70 μl) was rubbed gently into the dorsal skin of each mouse daily; new gloves were worn for each treatment type. Hair growth was recorded daily for each animal for d 42, and dorsal photographs were taken at d 0, 7, 14, 17, 21, 24, 28, 31, 35, and 42. […] To calculate mean values, the first day of growth was designated as d 43 for any mouse showing no hair growth signs by the last day. The day when the shaved dorsal area was fully covered with new black hairs, i.e., there was no pink skin remaining and no visible difference in hair length to the adjacent unshaved areas, was also recorded. This assay has been successfully used to evaluate compounds that cause hair growth (see, e.g., Khidhir et al. FASB J. 2013, 27, 557-567; Plikus et al. J. Invest. Dermatol. 2008, 128, 1071-1080).

A short description of assay [3]: body weight gain in rats on daily oral gavage for 26 weeks. It counts as in vivo, rats (Hsd: Sprague Dawley). The procedure: In this example it is shown that the compound of Formula I when administration orally daily results in reduction in weight gain and lower mean body weights. In general males rats (n=17-20) and female rats (n=17-20) were administered orally (by gavage) daily for 6 months at the doses indicated below.
More specifically, male and female rats (Hsd: Sprague Dawley) were assigned to four groups and administered test article formulations (0.03, 0.3, or 5 mg/kg/day compound of Formula I) or vehicle control article (0 mg/mL [0%] compound of Formula I [placebo] containing 3% hydroxypropyl-β-cyclodextrin [30 mg/mL (150 mg/kg/day)] and 10 mM phosphate buffered saline) via oral gavage once daily for 26 weeks at a volume of 5 mL/kg. Animals were sacrificed at the end of the dosing phase (up to 15 animals/sex/group) or at the end of the 4-week recovery phase (5 animals/sex/group in dose groups given vehicle control article and 5 mg/kg/day the compound of Formula I). These animals were on a restricted diet due to the length of the study. Weights were measured once per week.

[4] abbreviates: 5 mg/kg/day oral gavage daily for 6 months, p<0.05.

pEC50: −log10 of the molar value. Entries after “also recorded” stand apart in the source; their conditions may differ.

The term pEC50 denotes the EC50 on a negative log10 scale, so that one unit is a factor of ten. Read a high pEC50 as a low EC50.

As for `CCNC(=O)CCC/C=C\C[C@@H]1[C@@H](/C=C/[C@@H](O)CCc2ccccc2)[C@H](O)C[C@@H]1O` [Bimatoprost, bimatoprost, reference compound], in assay [1], the pEC50 is 6.11 and the “stimulation of prostamide receptors on human pre-adipocytes” value (“stimulation of prostamide receptors” for short) was “stimulate prostamide receptors”. Also, in assay [2], the “change in impedance (agonist response) on human dermal papilla cells” value (“change in impedance (agonist response)” below) is reported as “reduction in impedance; also recorded: shows activity”. Further, in the assay with female C57BL/6J mice, the “start of hair re-growth” value is “accelerates both time to start and full hair re-growth”; the full hair re-growth result is “accelerates both time to start and full hair re-growth”.

Regarding `NC(=O)CCC/C=C\C[C@@H]1[C@@H](/C=C/[C@@H](O)CCc2cc(Br)sc2Br)[C@H](O)C[C@@H]1O` [Formula II], in assay [1], the pEC50 is 7.93, the “potency relative to bimatoprost on human pre-adipocytes” value is reported as “relatively more potent than bimatoprost” and the “stimulation of prostamide receptors” value is reported as “stimulate prostamide receptors”. For the same molecule, the “change in impedance (agonist response)” value in assay [2] is recorded as “do not show activity”.

For the molecule `NC(=O)CCC/C=C\C[C@@H]1[C@@H](/C=C/[C@@H](O)CCc2cc(Cl)sc2Cl)[C@H](O)C[C@@H]1O` [Formula I], the “weight gain, female rats” value in assay [3] (0.3 mg/kg/day oral gavage daily for 6 months, p<0.05) was “inhibited weight gain”. For the same molecule, in assay [3] (setting [4]), the “weight gain, female rats” value is listed as “inhibited weight gain” and the “weight gain, male rats” value was “inhibited weight gain”. In assay [3] (4-week recovery phase after 5 mg/kg/day), the “reversibility of the weight effect after administration ceased” value was “somewhat reversible”. Besides, the “start of the decrease in body weight gain” value in assay [3] (daily oral administration, male and female rats, persisted up to 183 days) was found to be 14 days. Also, in assay [1], the pEC50 is 7.97, the “potency relative to bimatoprost on human pre-adipocytes” value is “relatively more potent than bimatoprost” and the “stimulation of prostamide receptors” value is listed as “stimulate prostamide receptors”. Besides, in assay [2], the “change in impedance (agonist response)” value is recorded as “did not produce any detectable effect; also recorded: do not show activity”. Besides, in the assay with female C57BL/6J mice, the “start of hair re-growth” value was “appears to boost the start to hair re-growth” and the full hair re-growth entry is “does not result in full hair re-growth”.
